# Target: T1, vanilloid receptor 1 (VR1/TRPV1 receptor) (Homo sapiens, UniProt Q8NER1)
# T1 construct: expressed in transfected cells; host or cells: CHO K1 cells (ECACC), stably transfected
# Assay: VR1/TRPV1 receptor affinity, capsaicin stimulus (human)
# Format: cell-based, human being
# Set-up: key to (f) Ki (human being) [nM] Cap: result in words: AG=agonist; pAG=partial agonist; NE=no effect
# Settings: Tables 8-12
# T1 sequence (Q8NER1 whole entry): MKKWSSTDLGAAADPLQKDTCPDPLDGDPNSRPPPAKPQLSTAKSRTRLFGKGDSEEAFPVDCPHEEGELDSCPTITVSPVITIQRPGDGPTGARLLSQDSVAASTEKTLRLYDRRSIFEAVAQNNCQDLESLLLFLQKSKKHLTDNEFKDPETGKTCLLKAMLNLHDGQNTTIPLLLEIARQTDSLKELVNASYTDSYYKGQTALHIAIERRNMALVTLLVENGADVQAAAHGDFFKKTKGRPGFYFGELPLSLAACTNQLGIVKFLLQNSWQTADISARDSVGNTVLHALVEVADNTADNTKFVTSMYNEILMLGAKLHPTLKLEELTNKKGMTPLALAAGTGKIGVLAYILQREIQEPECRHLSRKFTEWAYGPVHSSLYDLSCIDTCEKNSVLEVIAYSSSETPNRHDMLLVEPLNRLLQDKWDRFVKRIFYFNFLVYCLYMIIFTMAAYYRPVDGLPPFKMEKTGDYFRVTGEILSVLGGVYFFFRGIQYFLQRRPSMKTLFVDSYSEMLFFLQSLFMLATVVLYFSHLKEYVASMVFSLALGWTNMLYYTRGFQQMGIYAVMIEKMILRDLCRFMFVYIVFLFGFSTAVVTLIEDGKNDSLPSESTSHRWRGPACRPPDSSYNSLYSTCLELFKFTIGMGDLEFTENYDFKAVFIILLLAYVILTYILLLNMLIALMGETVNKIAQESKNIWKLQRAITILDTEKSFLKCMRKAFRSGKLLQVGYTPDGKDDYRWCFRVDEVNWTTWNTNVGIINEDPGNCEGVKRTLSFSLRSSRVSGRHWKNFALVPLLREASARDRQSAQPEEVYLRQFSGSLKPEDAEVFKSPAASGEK
row,(f) Ki (human being) [nM] Cap: result in words,SMILES
1,AG,"CC(O)c1ccc(C(C)C(=O)NCc2cc(C(C)(C)C)nn2-c2cccc(Cl)c2)cc1F (stereo not drawn) [Example A98, N-[[5-tert-Butyl-2-(3-chlorophenyl)-2H-pyrazol-3-yl]-methyl]-2-[3-fluoro-4-(1-hydroxy-ethyl)-phenyl]-propionamide]"
2,AG,"CC(C(=O)NCc1cc(C(C)(C)C)nn1-c1cccc(Cl)c1)c1ccc(CCO)c(F)c1 (stereo not drawn) [Example A139, N-[[5-tert-Butyl-2-(3-chlorophenyl)-2H-pyrazol-3-yl]-methyl]-2-[3-fluoro-4-(2-hydroxy-ethyl)-phenyl]-propionamide]"
3,AG,"CC(C)(C)c1cc(CNC(=O)Nc2ccc(CCO)c(F)c2)n(-c2cccc(Cl)c2)n1 [Example A140, 1-[[5-tert-Butyl-2-(3-chlorophenyl)-2H-pyrazol-3-yl]-methyl]-3-[3-fluoro-4-(2-hydroxy-ethyl)-phenyl]-urea]"
4,AG,"CC(C(=O)NCc1cc(C(C)(C)C)nn1-c1cccc(Cl)c1)c1ccc(C(O)CO)c(F)c1 (stereo not drawn) [Example A145, N-[[5-tert-Butyl-2-(3-chlorophenyl)-2H-pyrazol-3-yl]-methyl]-2-[4-(1,2-dihydroxy-ethyl)-3-fluoro-phenyl]-propionamide]"
5,AG,"CC(C(=O)NCc1cc(C(C)(C)C)nn1-c1cccc(Cl)c1)c1ccc(C(O)CO)cc1 (stereo not drawn) [Example A147, N-[[5-tert-Butyl-2-(3-chlorophenyl)-2H-pyrazol-3-yl]-methyl]-2-[4-(1,2-dihydroxy-ethyl)-phenyl]-propionamide]"

# Same assay, conditions: Tables 8-12, read-out: (f) Ki (human being) [nM] Cap
row,Ki,SMILES
1,5 nM,"CC(C(=O)NCc1cc(C(F)(F)F)nn1-c1cccc(Cl)c1)c1ccc(CNS(C)(=O)=O)c(F)c1 (stereo not drawn) [Example B1, N-[[2-(3-Chlorophenyl)-5-(trifluoromethyl)-2H-pyrazol-3-yl]-methyl]-2-[3-fluoro-4-(methanesulfonamido-methyl)-phenyl]-propionamide]"
2,2.4 nM,"CC(C(=O)NCc1cc(C(F)(F)F)nn1-c1ccc(F)c(Cl)c1)c1ccc(CNS(C)(=O)=O)c(F)c1 (stereo not drawn) [Example B2, N-[[2-(3-Chloro-4-fluoro-phenyl)-5-(trifluoromethyl)-2H-pyrazol-3-yl]-methyl]-2-[3-fluoro-4-(methanesulfonamido-methyl)-phenyl]-propionamide]"
3,3 nM,"CC(C(=O)NCc1cc(C(C)(C)C)nn1-c1ccc(F)c(Cl)c1)c1ccc(CNS(C)(=O)=O)c(F)c1 (stereo not drawn) [Example B3, N-[[5-tert-Butyl-2-(3-chloro-4-fluoro-phenyl)-2H-pyrazol-3-yl]-methyl]-2-[3-fluoro-4-(methanesulfonamido-methyl)-phenyl]-propionamide]"
4,9 nM,"CC(C(=O)NCc1cc(C(F)(F)F)nn1-c1cccc(Cl)c1)c1ccc(CNS(C)(=O)=O)cc1 (stereo not drawn) [Example B5, N-[[2-(3-Chlorophenyl)-5-(trifluoromethyl)-2H-pyrazol-3-yl]-methyl]-2-[4-(methanesulfonamido-methyl)-phenyl]-propionamide]"
5,7 nM,"CC(C(=O)NCc1cc(C(C)(C)C)nn1-c1cccc(Cl)c1)c1ccc(CNS(C)(=O)=O)cc1 (stereo not drawn) [Example B6, N-[[5-tert-Butyl-2-(3-chlorophenyl)-2H-pyrazol-3-yl]-methyl]-2-[4-(methanesulfonamido-methyl)-phenyl]-propionamide]"
6,7 nM,"CC(C(=O)NCc1cc(C(F)(F)F)nn1-c1cccc(F)c1)c1ccc(CNS(C)(=O)=O)c(F)c1 (stereo not drawn) [Example B7, 2-[3-Fluoro-4-(methanesulfonamido-methyl)-phenyl]-N-[[2-(3-fluorophenyl)-5-(trifluoromethyl)-2H-pyrazol-3-yl]-methyl]-propionamide]"
7,1 nM,"CC(C(=O)NCc1cc(C(F)(F)F)nn1-c1cccc(C(F)(F)F)c1)c1ccc(CNS(C)(=O)=O)c(F)c1 (stereo not drawn) [Example B8, 2-[3-Fluoro-4-(methanesulfonamido-methyl)-phenyl]-N-[[5-(trifluoromethyl)-2-[3-(trifluoromethyl)phenyl]-2H-pyrazol-3-yl]-methyl]-propionamide]"
8,6 nM,"CC(C(=O)NCc1cc(C(C)(C)C)nn1-c1cccc(F)c1)c1ccc(CNS(C)(=O)=O)c(F)c1 (stereo not drawn) [Example B9, N-[[5-tert-Butyl-2-(3-fluorophenyl)-2H-pyrazol-3-yl]-methyl]-2-[3-fluoro-4-(methanesulfonamido-methyl)-phenyl]-propionamide]"
9,6 nM,"CC(C(=O)NCc1cc(C(C)(C)C)nn1-c1ccc(F)c(F)c1)c1ccc(CNS(C)(=O)=O)c(F)c1 (stereo not drawn) [Example B10, N-[[5-tert-Butyl-2-(3,4-difluoro-phenyl)-2H-pyrazol-3-yl]-methyl]-2-[3-fluoro-4-(methanesulfonamido-methyl)-phenyl]-propionamide]"
10,9 nM,"COc1cc(NC(=O)NCc2cc(C(C)(C)C)nn2-c2cccc(Cl)c2)ccc1CNS(C)(=O)=O [Example B11, 1-[[5-tert-Butyl-2-(3-chlorophenyl)-2H-pyrazol-3-yl]-methyl]-3-[4-(methanesulfonamido-methyl)-3-methoxy-phenyl]-urea]"
11,41 nM,"COc1cc(NC(=O)NCc2cc(C(F)(F)F)nn2-c2cccc(Cl)c2)ccc1CNS(C)(=O)=O [Example B12, 1-[[2-(3-Chlorophenyl)-5-(trifluoromethyl)-2H-pyrazol-3-yl]-methyl]-3-[4-(methanesulfonamido-methyl)-3-methoxy-phenyl]-urea]"
12,1 nM,"CC(C(=O)NCc1cc(C(C)(C)C)nn1-c1cccc(Cl)c1)c1ccc(CNS(C)(=O)=O)c(Cl)c1 (stereo not drawn) [Example B13, N-[[5-tert-Butyl-2-(3-chlorophenyl)-2H-pyrazol-3-yl]-methyl]-2-[3-chloro-4-(methanesulfonamido-methyl)-phenyl]-propionamide]"
13,64 nM,"CNCc1ccc(NC(=O)NCc2cc(C(F)(F)F)nn2-c2cccc(Cl)c2)cc1 [Example B14, 1-[[2-(3-Chlorophenyl)-5-(trifluoromethyl)-2H-pyrazol-3-yl]-methyl]-3-[4-(methylamino-methyl)-phenyl]-urea]"
14,6 nM,"COc1cccc(-n2nc(C(F)(F)F)cc2CNC(=O)C(C)c2ccc(CNS(C)(=O)=O)c(F)c2)c1 (stereo not drawn) [Example B15, 2-[3-Fluoro-4-(methanesulfonamido-methyl)-phenyl]-N-[[2-(3-methoxyphenyl)-5-(trifluoromethyl)-2H-pyrazol-3-yl]-methyl]-propionamide]"
15,2 nM,"CCS(=O)(=O)NCc1ccc(C(C)C(=O)NCc2cc(C(C)(C)C)nn2-c2cccc(Cl)c2)cc1F (stereo not drawn) [Example B16, N-[[5-tert-Butyl-2-(3-chlorophenyl)-2H-pyrazol-3-yl]-methyl]-2-[4-[[(ethylsulfonyl)amino]-methyl]-3-fluoro-phenyl]-propionamide]"
16,3 nM,"CCS(=O)(=O)NCc1ccc(C(C)C(=O)NCc2cc(C(F)(F)F)nn2-c2cccc(Cl)c2)cc1F (stereo not drawn) [Example B17, N-[[2-(3-Chlorophenyl)-5-(trifluoromethyl)-2H-pyrazol-3-yl]-methyl]-2-[4-[[(ethylsulfonyl)amino]-methyl]-3-fluoro-phenyl]-propionamide]"
17,13 nM,"CC(C(=O)NCc1cc(C(F)(F)F)nn1-c1ccc(Cl)cc1)c1ccc(CNS(C)(=O)=O)c(F)c1 (stereo not drawn) [Example B18, N-[[2-(4-Chlorophenyl)-5-(trifluoromethyl)-2H-pyrazol-3-yl]-methyl]-2-[3-fluoro-4-(methanesulfonamido-methyl)-phenyl]-propionamide]"
18,6 nM,"CC(C(=O)NCc1cc(C(F)(F)F)nn1-c1ccc(F)c(F)c1)c1ccc(CNS(C)(=O)=O)c(F)c1 (stereo not drawn) [Example B19, N-[[2-(3,4-Difluoro-phenyl)-5-(trifluoromethyl)-2H-pyrazol-3-yl]-methyl]-2-[3-fluoro-4-(methanesulfonamido-methyl)-phenyl]-propionamide]"
19,52 nM,"CC(C(=O)NCc1cc(C(C)(C)C)nn1-c1ccc(Cl)cc1)c1ccc(CNS(C)(=O)=O)c(F)c1 (stereo not drawn) [Example B20, N-[[5-tert-Butyl-2-(4-chlorophenyl)-2H-pyrazol-3-yl]-methyl]-2-[3-fluoro-4-(methanesulfonamido-methyl)-phenyl]-propionamide]"
20,30 nM,"CC(C(=O)NCc1cc(C(C)(C)C)nn1-c1ccc(F)cc1)c1ccc(CNS(C)(=O)=O)c(F)c1 (stereo not drawn) [Example B21, N-[[5-tert-Butyl-2-(4-fluorophenyl)-2H-pyrazol-3-yl]-methyl]-2-[3-fluoro-4-(methanesulfonamido-methyl)-phenyl]-propionamide]"
21,3 nM,"CC(C(=O)NCc1cc(C(F)(F)F)nn1-c1cccc(Cl)c1)c1ccc(CNS(C)(=O)=O)c(Cl)c1 (stereo not drawn) [Example B22, 2-[3-Chloro-4-(methanesulfonamido-methyl)-phenyl]-N-[[2-(3-chlorophenyl)-5-(trifluoromethyl)-2H-pyrazol-3-yl]-methyl]-propionamide]"
22,13 nM,"CS(=O)(=O)NCc1ccc(CC(=O)NCc2cc(C(F)(F)F)nn2-c2cccc(Cl)c2)cc1F [Example B23, N-[[2-(3-Chlorophenyl)-5-(trifluoromethyl)-2H-pyrazol-3-yl]-methyl]-2-[3-fluoro-4-(methanesulfonamido-methyl)-phenyl]-acetamide]"
23,55 nM,"CCNCc1ccc(NC(=O)NCc2cc(C(F)(F)F)nn2-c2cccc(Cl)c2)cc1F [Example B24, 1-[[2-(3-Chlorophenyl)-5-(trifluoromethyl)-2H-pyrazol-3-yl]-methyl]-3-[4-(ethylamino-methyl)-3-fluoro-phenyl]-urea]"
24,45 nM,"CCNCc1ccc(NC(=O)NCc2cc(C(C)(C)C)nn2-c2cccc(Cl)c2)cc1F [Example B25, 1-[[5-tert-Butyl-2-(3-chlorophenyl)-2H-pyrazol-3-yl]-methyl]-3-[4-(ethylamino-methyl)-3-fluoro-phenyl]-urea]"
25,12 nM,"CC(C)(C)c1cc(CNC(=O)Cc2ccc(CNS(C)(=O)=O)c(F)c2)n(-c2cccc(Cl)c2)n1 [Example B26, N-[[5-tert-Butyl-2-(3-chlorophenyl)-2H-pyrazol-3-yl]-methyl]-2-[3-fluoro-4-(methanesulfonamido-methyl)-phenyl]-acetamide]"
